In test [1] the target is T1, PTH receptor (Homo sapiens, UniProt Q03431).
T1 construct: endogenous in cells; host or cells: SaOS-2/B10 human osteosarcoma cells
T1 sequence (Q03431 27-593): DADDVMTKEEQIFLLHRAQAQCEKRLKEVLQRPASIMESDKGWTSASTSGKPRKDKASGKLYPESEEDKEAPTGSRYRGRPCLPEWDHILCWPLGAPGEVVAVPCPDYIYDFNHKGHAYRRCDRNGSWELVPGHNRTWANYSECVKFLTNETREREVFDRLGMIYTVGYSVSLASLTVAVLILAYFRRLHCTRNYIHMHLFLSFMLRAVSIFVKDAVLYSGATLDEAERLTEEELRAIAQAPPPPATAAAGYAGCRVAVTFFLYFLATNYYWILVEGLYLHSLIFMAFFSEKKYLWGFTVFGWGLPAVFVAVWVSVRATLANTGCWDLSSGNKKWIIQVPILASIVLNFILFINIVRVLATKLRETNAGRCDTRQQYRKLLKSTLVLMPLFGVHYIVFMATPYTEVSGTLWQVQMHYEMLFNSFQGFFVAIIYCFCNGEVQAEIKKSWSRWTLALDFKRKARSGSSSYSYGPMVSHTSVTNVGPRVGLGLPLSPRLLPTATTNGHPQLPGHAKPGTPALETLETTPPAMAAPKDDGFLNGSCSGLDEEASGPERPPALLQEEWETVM
Nature of the test: PTH receptor binding, human osteosarcoma B10 cell line (SaOS-2/B10). As to conditions: inhibiting binding of 95 pM 125I-[Nle8,18,Tyr34]bPTH(1-34)NH2 (footnote a), mean ± SEM, at least three experiments, read-out: Binding Kb. Here is the method:
(§1) SaSO-2/B10 cells cultures. The details of maintenance of this cell line in culture were reported previously (see Chorev, M., et al., Intl. J. Peptide & Protein Res. 36, 465-470 (1990)).
(§2) PTH Receptor Binding and Adenylate Cyclase Assays. Kidney-based assays were performed with bovind renal cortical membranes following the procedures previously described (see Goldman, M. E., et al., Endocrinol. 123, 1468-1475 (1988)). Bone-based assays were performed with human SaOS-2/B10 cell cultures. Cyclic AMP was measured using the reported procedure (see Rodan, S. B., et al., J. Clin. Invest. 72, 1511-1515 (1983)), including modifications reported previously (see Chorev. M., et al., Intl. J. Peptide & Protein Res. 36, 465-470 (1990)). Receptor binding affinities for PTHrP analogs were obtained using cells plated in 24-wall dished in RPMI 1640 medium supplemented with 1% BSA, 20 mM HEPES, pH 7.5, and 0.1% azide. [Nle^8,^18, mono-^123 I-Tyr^4 ]bPTH(1-34)NH2 (50,000 cpm/well) was added to confluent monolayers in the absence or presence of varying amounts of analog in a final volume of 0.25 ml. Cultures were incubated at room temperature for 4 hours. Binding reactions were terminated by placing the cultures on ice and washing 4 times with ice cold phosphate buffered saline. Radioactivity associated with the cells was recovered by dissolving the cells in 1 ml of 1N NaOH.
(§3) Data analysis. Inhibition constants for binding (Kb) and adenylate cyclase (Kl) were calculated following a published method (see Cheng, Y. C., et al., Biochem. Pharmacol. 22, 3099-3108 (1973)).

The target of test [2] is T2, PTH receptor (Bos taurus, UniProt Q1LZF7).
T2 construct: from tissue; host or cells: bovine renal cortical membranes
T2 sequence (Q1LZF7 29-589): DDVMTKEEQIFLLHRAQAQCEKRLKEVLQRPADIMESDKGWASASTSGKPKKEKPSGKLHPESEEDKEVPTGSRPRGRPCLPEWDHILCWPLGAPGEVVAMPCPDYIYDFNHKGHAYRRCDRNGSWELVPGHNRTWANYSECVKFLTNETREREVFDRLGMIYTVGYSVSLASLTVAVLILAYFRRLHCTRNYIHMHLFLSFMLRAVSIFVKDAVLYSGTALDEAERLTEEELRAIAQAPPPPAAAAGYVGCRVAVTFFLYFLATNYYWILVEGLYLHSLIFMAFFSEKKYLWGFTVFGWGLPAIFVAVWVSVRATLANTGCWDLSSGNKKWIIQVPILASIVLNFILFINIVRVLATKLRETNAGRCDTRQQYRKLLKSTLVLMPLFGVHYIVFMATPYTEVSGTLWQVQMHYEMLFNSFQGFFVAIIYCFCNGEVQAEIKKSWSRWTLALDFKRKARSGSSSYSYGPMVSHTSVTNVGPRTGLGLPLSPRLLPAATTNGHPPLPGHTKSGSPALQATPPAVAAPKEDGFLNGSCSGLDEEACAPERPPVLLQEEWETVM
In words: PTH receptor binding, bovine renal cortical membranes. As to conditions: inhibiting binding of 25 nM 125I-[Nle8,18,Tyr34]bPTH(1-34)NH2 (footnote c), mean ± SEM, at least three experiments, read-out: Binding Kb. Here is the method: as §2, §3

For test [3], the target named is T3, adenylate cyclase (PTH receptor) in bovine renal cortical membranes (Bos taurus, UniProt Q1LZF7).
T3 construct: from tissue; host or cells: bovine renal cortical membranes
T3 sequence (Q1LZF7 29-589): T2 sequence (Q1LZF7 29-589)
In words: Adenylate cyclase assay, bovine renal cortical membranes. The test is classed as biochemical. The conditions noted are these: mean ± SEM, at least three experiments. Here is the method:
as §2, §3

The target of test [4] is T4, adenylate cyclase (PTH receptor) in human SaOS-2/B10 cells (Homo sapiens, UniProt Q03431).
T4 construct: endogenous in cells; host or cells: SaOS-2/B10 human osteosarcoma cells
T4 sequence (Q03431 27-593): T1 sequence (Q03431 27-593)
Nature of the test: Adenylate cyclase assay, human osteosarcoma B10 cell line (SaOS-2/B10). It is filed as cell-based. The conditions noted are these: mean ± SEM, at least three experiments. How it is done:
as §1, §2, §3

On to “[Nle^8,18,Lys^13 (ε-Biotinyl),Tyr^34,Cys^35 (S-2'-(N-succinyl-β-alanyl-3-iodotyramide)]bPTH(1-35)NH2 [analog 3A]”, for which the Ki is 1.7 ± 0.2 nM at PTH receptor [1] and 2 ± 0.2 nM at PTH receptor [2]. The figures for the Km in test [3] and in test [4] were 6.4 ± 0.7 nM and 0.5 ± 0.06 nM, respectively.

As to “Ac[Cys^8 (S-2'-(N-succinyl-β-alanyl-3-idotyramide), Leu^11, D-Trp^12 ]-PTHrP(8-34)NH2 [analog 2A]”, the Ki worked out at 2.4 ± 0.5 nM at PTH receptor [1], 2 ± 0.1 nM at PTH receptor [2], 22 ± 5 nM in test [3] (antagonizing 3 nM [Nle8,18,Tyr34]bPTH(1-34)NH2 (footnote d)) and 2.8 ± 1 nM in test [4] (antagonizing 0.25 nM [Nle8,18,Tyr34]bPTH(1-34)NH2 (footnote b)).

In the case of “[Cys^35 (S-2'-(N-succinyl-β-alanyl-3-iodotyramide)]PTHrP (1-35)NH2 [analog 1A]”, the Ki on PTH receptor [1] worked out at 4.2 ± 0.7 nM; on PTH receptor [2], 14 ± 2 nM. The Km was determined as 36 ± 7 nM in test [3] and 0.5 ± 0.04 nM in test [4].
